# Measurements: US12427134B2, “Methods of reducing the risk of cardiovascular events in a subject with atrial fibrillation and/or atrial flutter” (priority 2019, dated 2025)
# Test system: hypertriglyceridemic patients with cardiovascular disease or at high risk for cardiovascular disease
# Experiment: REDUCE-IT: bleeding-related adverse events (serious and any, by category, preferred term, antithrombotic medication, fatal association)
# Type: in vivo
# Text: Adverse Events of Special Interest: Bleeding-related adverse events, glucose control (fasting blood glucose and HbA1c), and indicators of hepatic disorders (e.g., ALT or AST increases >3×ULN, total bilirubin increases of ≥2×ULN) were summarized separately and compared between treatment groups.
# Due to the convergence of clinical events shortly before a patient's death, direct causality of an individual bleeding event with death cannot always be determined. Bleeding-related clinical events (i.e., TEAEs, SAEs, or positively adjudicated endpoints) that occurred proximal to death (per site Investigator, CEC, or Sponsor medical assessment) are presented in Table 82 and occurred in 23 (0.6%) patients in the AMR101 group and 34 (0.8%) patients in the placebo group, with no statistically significant difference between treatment groups (p=0.18). Sponsor medical assessment classified 20 (0.5%) patients in the AMR101 group and 23 (0.6%) patients in the placebo group as having a bleeding event that likely contributed to death, with no statistically significant difference between treatment groups (p=0.76). […] None of these 57 deaths were associated with study drug per Investigator assessment; one bleeding event in each treatment group was considered possibly related to study drug per Investigator assessment.
# A summary of baseline or on-treatment anti-thrombic medication use by type in patients with serious bleeding events for the ITT population is provided in Tables 97A-97D.
structure (smiles),measurement,setting,value
"CC/C=C\C/C=C\C/C=C\C/C=C\C/C=C\CCCC(=O)OCC [AMR101, eicosapentaenoic acid ethyl ester]","Bleeding event that did not likely contribute to death (Sponsor medical assessment), patients",Safety population,3 (0.1%) n (%)
same,"Bleeding event that likely contributed to death (Sponsor medical assessment), patients",Safety population,20 (0.5%) n (%)
same,"Bleeding-related clinical events that occurred proximal to death, patients",Safety population,23 (0.6%) n (%)
same,Fatal bleeding events,Safety population,no fatal bleeding events
same,"Bleeding Not Likely Contributing to a Fatal Event, %","Safety population N = 4089, P-value 0.06",(0.1) %
same,"Any Bleeding with a Possible Fatal Association, %","Safety population N = 4089, P-value 0.18",(0.6) %
same,"Bleeding Likely Contributing to a Fatal Event, %","Safety population N = 4089, P-value 0.76",(0.5) %
same,Fatal bleeding events,"Safety population, listed as icosapent ethyl",no fatal bleeding observed in either group
same,"Bleeding TEAEs, %","human, in vivo",(11.8) %
same,"Bleeding-related disorders (bleeding TEAEs), patients","human, in vivo",11.8%
same,"Patients with any serious bleeding TEAE, % patients","human, in vivo",(2.7) %
same,"Patients with any serious bleeding TEAE, n patients","human, in vivo",111
same,"Patients with serious CNS bleeding, % patients","human, in vivo",(0.3) %
same,"Patients with serious CNS bleeding, n patients","human, in vivo",14
same,"Patients with serious Gl bleeding, % patients","human, in vivo",(1.5) %
same,"Patients with serious Gl bleeding, n patients","human, in vivo",62
same,"Patients with serious other bleeding, % patients","human, in vivo",(1.0) %
same,"Patients with serious other bleeding, n patients","human, in vivo",41
same,"Serious GI hemorrhage, patients","human, in vivo",0.6%
same,Serious bleeding TEAE: Aortic Aneurysm Rupture,"human, in vivo",1 (0.0%) n (%)
same,Serious bleeding TEAE: Bleeding related disorders,"human, in vivo",111 (2.7%) n (%)
same,Serious bleeding TEAE: Brain Contusion,"human, in vivo",0 (0.0%) n (%)
same,Serious bleeding TEAE: Catheter Site Hemorrhage,"human, in vivo",0 (0.0%) n (%)
same,Serious bleeding TEAE: Central nervous system bleeding,"human, in vivo",14 (0.3%) n (%)
same,Serious bleeding TEAE: Cerebral Hemorrhage,"human, in vivo",0 (0.0%) n (%)
same,Serious bleeding TEAE: Cystitis Hemorrhagic,"human, in vivo",2 (0.0%) n (%)
same,Serious bleeding TEAE: Diverticulitis Intestinal Hemorrhagic,"human, in vivo",0 (0.0%) n (%)
same,Serious bleeding TEAE: Diverticulum Intestinal Hemorrhagic,"human, in vivo",3 (0.1%) n (%)
same,Serious bleeding TEAE: Duodenal Ulcer Hemorrhage,"human, in vivo",2 (0.0%) n (%)
same,Serious bleeding TEAE: Ecchymosis,"human, in vivo",1 (0.0%) n (%)
same,Serious bleeding TEAE: Epistaxis,"human, in vivo",7 (0.2%) n (%)
same,Serious bleeding TEAE: Esophageal Hemorrhage,"human, in vivo",0 (0.0%) n (%)
same,Serious bleeding TEAE: Extravasation Blood,"human, in vivo",1 (0.0%) n (%)
same,Serious bleeding TEAE: Gastric Hemorrhage,"human, in vivo",1 (0.0%) n (%)
same,Serious bleeding TEAE: Gastric Ulcer Hemorrhage,"human, in vivo",3 (0.1%) n (%)
same,Serious bleeding TEAE: Gastrointestinal Angiodysplasia Hemorrhagic,"human, in vivo",1 (0.0%) n (%)
same,Serious bleeding TEAE: Gastrointestinal bleeding,"human, in vivo",62 (1.5%) n (%)
same,Serious bleeding TEAE: Genital Hemorrhage,"human, in vivo",1 (0.0%) n (%)
same,Serious bleeding TEAE: Hemarthrosis,"human, in vivo",0 (0.0%) n (%)
same,Serious bleeding TEAE: Hematemesis,"human, in vivo",3 (0.1%) n (%)
same,Serious bleeding TEAE: Hematochezia,"human, in vivo",1 (0.0%) n (%)
same,Serious bleeding TEAE: Hematoma,"human, in vivo",1 (0.0%) n (%)
same,Serious bleeding TEAE: Hemoptysis,"human, in vivo",1 (0.0%) n (%)
same,Serious bleeding TEAE: Hemorrhagic Anemia,"human, in vivo",4 (0.1%) n (%)
same,Serious bleeding TEAE: Hemorrhagic Duodenitis,"human, in vivo",0 (0.0%) n (%)
same,Serious bleeding TEAE: Hemorrhagic Transformation Stroke,"human, in vivo",1 (0.0%) n (%)
same,Serious bleeding TEAE: Hemorrhoidal Hemorrhage,"human, in vivo",3 (0.1%) n (%)
same,Serious bleeding TEAE: Hemothorax,"human, in vivo",1 (0.0%) n (%)
same,Serious bleeding TEAE: Immune Thrombocytopenic Purpura,"human, in vivo",0 (0.0%) n (%)
same,Serious bleeding TEAE: Intra-Abdominal Hemorrhage,"human, in vivo",1 (0.0%) n (%)
same,Serious bleeding TEAE: Intracranial Hemorrhage,"human, in vivo",0 (0.0%) n (%)
same,Serious bleeding TEAE: Large Intestinal Hemorrhage,"human, in vivo",1 (0.0%) n (%)
same,Serious bleeding TEAE: Lower Gastrointestinal Hemorrhage,"human, in vivo",5 (0.1%) n (%)
same,Serious bleeding TEAE: Mallory-Weiss Syndrome,"human, in vivo",1 (0.0%) n (%)
same,Serious bleeding TEAE: Melaena,"human, in vivo",3 (0.1%) n (%)
same,Serious bleeding TEAE: Menorrhagia,"human, in vivo",1 (0.0%) n (%)
same,Serious bleeding TEAE: Mouth Hemorrhage,"human, in vivo",0 (0.0%) n (%)
same,Serious bleeding TEAE: Other bleeding,"human, in vivo",41 (1.0%) n (%)
same,Serious bleeding TEAE: Pancreatitis Hemorrhagic,"human, in vivo",1 (0.0%) n (%)
same,Serious bleeding TEAE: Peptic Ulcer Hemorrhage,"human, in vivo",1 (0.0%) n (%)
same,Serious bleeding TEAE: Pericardial Hemorrhage,"human, in vivo",0 (0.0%) n (%)
same,Serious bleeding TEAE: Post Procedural Hematoma,"human, in vivo",1 (0.0%) n (%)
same,Serious bleeding TEAE: Post Procedural Hematuria,"human, in vivo",0 (0.0%) n (%)
same,Serious bleeding TEAE: Post Procedural Hemorrhage,"human, in vivo",5 (0.1%) n (%)
same,Serious bleeding TEAE: Renal Hemorrhage,"human, in vivo",0 (0.0%) n (%)
same,Serious bleeding TEAE: Retinal Hemorrhage,"human, in vivo",1 (0.0%) n (%)
same,Serious bleeding TEAE: Retroperitoneal Hematoma,"human, in vivo",0 (0.0%) n (%)
same,Serious bleeding TEAE: Retroperitoneal Hemorrhage,"human, in vivo",1 (0.0%) n (%)
same,Serious bleeding TEAE: Shock Hemorrhagic,"human, in vivo",2 (0.0%) n (%)
same,Serious bleeding TEAE: Subarachnoid Hemorrhage,"human, in vivo",2 (0.0%) n (%)
same,Serious bleeding TEAE: Subdural Hemorrhage,"human, in vivo",2 (0.0%) n (%)
same,Serious bleeding TEAE: Traumatic Hematoma,"human, in vivo",2 (0.0%) n (%)
same,Serious bleeding TEAE: Traumatic Intracranial Hemorrhage,"human, in vivo",0 (0.0%) n (%)
same,Serious bleeding TEAE: Ulcer Hemorrhage,"human, in vivo",1 (0.0%) n (%)
same,Serious bleeding TEAE: Upper Gastrointestinal Hemorrhage,"human, in vivo",3 (0.1%) n (%)
same,Serious bleeding TEAE: Urinary Bladder Hemorrhage,"human, in vivo",1 (0.0%) n (%)
same,"Serious bleeding TEAEs, %","human, in vivo",(2.7) %
same,"Serious bleeding TEAEs, patients","human, in vivo",2.7%
same,"Serious bleeding adverse event - Epistaxis, % patients","human, in vivo",(0.2) %
same,"Serious bleeding adverse event - Epistaxis, n patients","human, in vivo",7
same,"Serious bleeding adverse event - Gl hemorrhage, % patients","human, in vivo",(0.6) %
same,"Serious bleeding adverse event - Gl hemorrhage, n patients","human, in vivo",26
same,"Serious bleeding adverse event - Hematuria, % patients","human, in vivo",(0.2) %
same,"Serious bleeding adverse event - Hematuria, n patients","human, in vivo",8
same,"Serious bleeding adverse event - Rectal hemorrhage, % patients","human, in vivo",(0.2) %
same,"Serious bleeding adverse event - Rectal hemorrhage, n patients","human, in vivo",10
same,"Serious bleeding adverse event - Subdural hematoma, % patients","human, in vivo",(0.2) %
same,"Serious bleeding adverse event - Subdural hematoma, n patients","human, in vivo",9
same,"Serious central nervous system bleeding, patients","human, in vivo",0.3%
same,"Serious gastrointestinal bleeding, patients","human, in vivo",1.5%
same,"TEAE of special interest: Bleeding-related disorders, %","human, in vivo",(11.8) %
same,"TEAE of special interest: Central nervous system bleeding, %","human, in vivo",(0.5) %
same,"TEAE of special interest: Gastrointestinal bleeding, %","human, in vivo",(3.1) %
same,"TEAE of special interest: Other bleeding, %","human, in vivo",(9.2) %
same,Serious bleeding TEAE: Gastrointestinal Hemorrhage,"human, in vivo, 4.9 years",26 (0.6%) n (%)
same,Serious bleeding TEAE: Hematuria,"human, in vivo, 4.9 years",8 (0.2%) n (%)
same,Serious bleeding TEAE: Rectal Hemorrhage,"human, in vivo, 4.9 years",10 (0.2%) n (%)
same,Serious bleeding TEAE: Subdural Hematoma,"human, in vivo, 4.9 years",9 (0.2%) n (%)
same,Patients with any bleeding/at risk,"on treatment: Clopidogrel, ITT",124/951
